Source: patent publication US20070092942A1, “Ubiquitin specific enzymes of family herpesviridae” (priority 2005, published 2007)
Peptide text beside a SMILES is read from it. * marks the point of attachment. Cbz = O=C(OCc1ccccc1)*; CH2F = FC*

Experiments:
Conditions in all cases: FIGS. 6-7
[1] = target: USP7 (Homo sapiens, UniProt Q93009); test: Western blot inhibitor screen, HA tagged Ub-VME probe, other enzymes; format: binding
[2] = target: T1, Cezanne (Homo sapiens, UniProt Q6GQQ9); test: as above; format: binding
T1 sequence (Q6GQQ9 1-843): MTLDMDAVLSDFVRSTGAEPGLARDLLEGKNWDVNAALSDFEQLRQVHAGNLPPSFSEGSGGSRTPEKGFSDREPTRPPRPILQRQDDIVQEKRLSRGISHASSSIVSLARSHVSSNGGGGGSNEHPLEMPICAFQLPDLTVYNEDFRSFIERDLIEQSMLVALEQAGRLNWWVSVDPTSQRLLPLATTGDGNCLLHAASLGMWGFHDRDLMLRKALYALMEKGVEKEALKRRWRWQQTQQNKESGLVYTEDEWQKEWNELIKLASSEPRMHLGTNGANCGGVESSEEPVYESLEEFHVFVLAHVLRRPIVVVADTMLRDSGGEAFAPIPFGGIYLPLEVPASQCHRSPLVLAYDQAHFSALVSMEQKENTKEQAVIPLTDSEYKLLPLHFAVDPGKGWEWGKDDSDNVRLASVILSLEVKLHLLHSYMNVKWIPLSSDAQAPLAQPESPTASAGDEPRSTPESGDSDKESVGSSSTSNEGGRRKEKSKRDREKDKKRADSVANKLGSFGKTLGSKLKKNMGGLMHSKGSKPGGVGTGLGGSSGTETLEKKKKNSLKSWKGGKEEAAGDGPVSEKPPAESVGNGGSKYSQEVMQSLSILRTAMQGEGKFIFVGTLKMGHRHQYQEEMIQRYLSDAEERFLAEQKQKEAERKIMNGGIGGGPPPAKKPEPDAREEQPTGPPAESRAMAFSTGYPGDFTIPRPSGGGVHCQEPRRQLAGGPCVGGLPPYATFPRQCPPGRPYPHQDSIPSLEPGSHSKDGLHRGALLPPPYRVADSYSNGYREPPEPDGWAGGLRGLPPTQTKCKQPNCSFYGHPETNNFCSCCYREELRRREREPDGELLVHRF

[3] = tested on: UL36; test: Western blot screen for inhibitors: anti-HA blot of UL36 bound to HA tagged Ub-VME probe; format: binding, HSV-1
Description: FIGS. 6-7 is a series photographs showing the results of a screen for inhibitors of the Herpes deubiquitinating enzyme. The photographs show the results of Western blot assays: anti-HA blots for detecting UL36 bound to the HA tagged Ub-VME probe.

[4] = target: Ataxin-3 (Homo sapiens, UniProt P54252); test: Western blot inhibitor screen, HA tagged Ub-VME probe, other enzymes; format: binding
[5] = target: T2, CYLD (Homo sapiens, UniProt Q9NQC7); test: as above; format: binding
T2 sequence (Q9NQC7 1-956): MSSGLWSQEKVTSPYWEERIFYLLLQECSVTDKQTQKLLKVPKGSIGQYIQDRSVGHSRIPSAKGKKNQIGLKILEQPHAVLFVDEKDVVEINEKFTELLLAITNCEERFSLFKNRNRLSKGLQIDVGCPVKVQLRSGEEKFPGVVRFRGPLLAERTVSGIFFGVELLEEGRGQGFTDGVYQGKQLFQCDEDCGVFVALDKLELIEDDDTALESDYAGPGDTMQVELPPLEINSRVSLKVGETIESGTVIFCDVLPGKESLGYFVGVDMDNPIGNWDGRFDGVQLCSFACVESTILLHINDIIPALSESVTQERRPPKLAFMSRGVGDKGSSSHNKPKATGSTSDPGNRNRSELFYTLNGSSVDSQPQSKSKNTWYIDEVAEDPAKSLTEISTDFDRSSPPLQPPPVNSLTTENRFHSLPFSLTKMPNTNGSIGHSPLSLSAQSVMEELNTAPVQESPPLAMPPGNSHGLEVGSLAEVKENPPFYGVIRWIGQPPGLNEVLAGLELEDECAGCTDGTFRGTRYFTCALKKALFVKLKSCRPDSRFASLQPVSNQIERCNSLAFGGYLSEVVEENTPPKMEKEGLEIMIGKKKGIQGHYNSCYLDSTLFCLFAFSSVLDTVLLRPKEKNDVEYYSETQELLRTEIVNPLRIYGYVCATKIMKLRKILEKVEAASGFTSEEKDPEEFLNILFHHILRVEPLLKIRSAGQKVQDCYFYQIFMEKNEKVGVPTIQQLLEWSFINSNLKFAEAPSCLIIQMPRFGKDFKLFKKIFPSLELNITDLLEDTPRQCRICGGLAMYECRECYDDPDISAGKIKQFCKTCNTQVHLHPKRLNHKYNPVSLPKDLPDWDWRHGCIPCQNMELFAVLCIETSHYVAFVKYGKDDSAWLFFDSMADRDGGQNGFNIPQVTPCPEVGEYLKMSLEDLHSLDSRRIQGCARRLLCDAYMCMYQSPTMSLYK

[6] = target: T3, UCH-3 (Homo sapiens, UniProt P15374); test: as above; format: binding
T3 sequence (P15374 1-230): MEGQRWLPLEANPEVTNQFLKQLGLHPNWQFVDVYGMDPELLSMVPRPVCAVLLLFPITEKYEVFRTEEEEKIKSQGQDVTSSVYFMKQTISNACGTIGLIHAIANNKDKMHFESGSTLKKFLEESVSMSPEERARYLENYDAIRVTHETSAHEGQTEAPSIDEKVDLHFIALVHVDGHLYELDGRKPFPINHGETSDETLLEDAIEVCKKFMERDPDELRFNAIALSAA

[7] = target: T4, UCH-1 (Homo sapiens, UniProt P09936); test: as above; format: binding
T4 sequence (P09936 1-223): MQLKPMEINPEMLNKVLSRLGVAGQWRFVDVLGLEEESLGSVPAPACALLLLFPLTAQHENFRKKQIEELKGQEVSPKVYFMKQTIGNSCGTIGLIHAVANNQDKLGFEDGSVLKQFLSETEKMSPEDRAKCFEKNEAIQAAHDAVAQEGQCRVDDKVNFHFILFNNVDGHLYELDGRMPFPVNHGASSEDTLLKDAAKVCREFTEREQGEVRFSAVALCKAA

Chain of USP7 (Q93009 whole entry, species assumed): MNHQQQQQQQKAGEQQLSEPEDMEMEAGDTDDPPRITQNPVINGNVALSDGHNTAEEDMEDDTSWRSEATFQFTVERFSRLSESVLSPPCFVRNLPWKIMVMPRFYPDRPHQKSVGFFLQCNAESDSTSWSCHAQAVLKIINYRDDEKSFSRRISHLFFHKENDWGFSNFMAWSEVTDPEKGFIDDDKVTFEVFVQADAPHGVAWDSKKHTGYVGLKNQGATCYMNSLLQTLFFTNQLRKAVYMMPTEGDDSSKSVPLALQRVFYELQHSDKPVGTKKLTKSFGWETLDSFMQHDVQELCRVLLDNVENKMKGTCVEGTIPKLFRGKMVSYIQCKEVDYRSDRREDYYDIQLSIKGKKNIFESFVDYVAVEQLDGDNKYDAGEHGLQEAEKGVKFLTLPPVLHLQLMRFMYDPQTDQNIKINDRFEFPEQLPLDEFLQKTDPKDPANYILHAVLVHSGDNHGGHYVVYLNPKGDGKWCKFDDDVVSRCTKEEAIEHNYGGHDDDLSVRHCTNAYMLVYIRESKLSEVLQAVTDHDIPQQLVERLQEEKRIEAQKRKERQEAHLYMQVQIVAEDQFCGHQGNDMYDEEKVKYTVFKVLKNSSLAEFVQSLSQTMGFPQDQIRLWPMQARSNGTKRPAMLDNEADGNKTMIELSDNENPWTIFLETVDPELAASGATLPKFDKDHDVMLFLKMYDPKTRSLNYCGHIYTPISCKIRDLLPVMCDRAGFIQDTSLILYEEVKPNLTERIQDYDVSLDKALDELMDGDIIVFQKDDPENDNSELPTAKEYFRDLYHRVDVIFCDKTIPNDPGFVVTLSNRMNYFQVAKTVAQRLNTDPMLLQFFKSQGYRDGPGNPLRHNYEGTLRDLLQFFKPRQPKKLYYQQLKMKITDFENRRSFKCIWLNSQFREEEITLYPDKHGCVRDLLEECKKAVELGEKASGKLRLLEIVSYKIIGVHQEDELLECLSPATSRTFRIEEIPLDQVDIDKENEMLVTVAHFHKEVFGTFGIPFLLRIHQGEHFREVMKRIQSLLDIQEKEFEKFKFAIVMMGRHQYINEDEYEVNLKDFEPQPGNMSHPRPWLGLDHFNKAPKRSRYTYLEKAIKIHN
Chain of Ataxin-3 (P54252 whole entry, species assumed): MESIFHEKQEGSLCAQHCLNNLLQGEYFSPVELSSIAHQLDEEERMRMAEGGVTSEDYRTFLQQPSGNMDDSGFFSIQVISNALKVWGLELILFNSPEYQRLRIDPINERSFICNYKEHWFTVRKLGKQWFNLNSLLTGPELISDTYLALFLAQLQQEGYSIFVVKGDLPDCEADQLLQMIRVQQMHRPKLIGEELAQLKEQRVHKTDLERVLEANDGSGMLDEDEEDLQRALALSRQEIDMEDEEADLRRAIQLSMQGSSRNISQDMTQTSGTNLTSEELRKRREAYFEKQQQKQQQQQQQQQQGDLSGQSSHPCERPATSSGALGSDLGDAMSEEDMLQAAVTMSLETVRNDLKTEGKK

CC(C)[C@H](NC(=O)OCc1ccccc1)C(=O)N[C@@H](C)C(=O)N[C@@H](C)C(=O)CF [Z-VA-L-A-fink] (Cbz-Val-Ala-Ala-CH2F)
did not inhibit: Inhibition of USP7 [1] | Inhibition of Cezanne [2] | Inhibition of Ataxin-3 [4] | Inhibition of CYLD [5] | Inhibition of UCH-3 [6] | Inhibition of UCH-1 [7]
specifically inhibited: Inhibition of UL36 (HA band of UL36 bound to HA tagged Ub-VME probe decreases or disappears) [3]
